From patent US9102674B2, “Substituted naphthyridine and quinoline compounds as MAO inhibitors” (DART NEUROSCIENCE (CAYMAN) LTD., priority 2013, dated 2015) come the findings set out here.

This experiment concerns the target T1, Human recombinant MAO-B (Homo sapiens, UniProt P27338).
T1 construct: host or cells: insect cells
T1 sequence (P27338 1-520): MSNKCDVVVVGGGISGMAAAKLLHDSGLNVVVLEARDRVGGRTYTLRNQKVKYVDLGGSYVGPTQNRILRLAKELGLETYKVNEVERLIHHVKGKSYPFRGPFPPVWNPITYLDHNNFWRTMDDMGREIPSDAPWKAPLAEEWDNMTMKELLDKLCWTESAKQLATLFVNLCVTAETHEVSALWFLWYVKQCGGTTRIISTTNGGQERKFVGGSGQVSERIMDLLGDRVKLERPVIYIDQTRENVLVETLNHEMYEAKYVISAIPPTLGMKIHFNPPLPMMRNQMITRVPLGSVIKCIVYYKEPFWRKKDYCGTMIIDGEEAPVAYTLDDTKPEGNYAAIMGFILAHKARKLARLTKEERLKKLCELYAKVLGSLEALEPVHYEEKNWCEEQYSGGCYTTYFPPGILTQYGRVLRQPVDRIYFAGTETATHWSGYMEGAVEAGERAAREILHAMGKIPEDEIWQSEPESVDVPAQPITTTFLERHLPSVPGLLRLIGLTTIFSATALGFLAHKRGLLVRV
The experiment in a line: MAO-B enzymatic assay (fluorometric, kynuramine). It is filed as biochemical. The settings on record: human recombinant MAO-B expressed in insect cells; kynuramine substrate; values given as bins; read-out: MAO-B (pEC50) (converted). The protocol:
The MAO enzymatic assay was performed according to the fluorometric method described by Matsumoto and colleagues (Matsumoto et al., Clin. Biochem. 1985, 18, 126-129) with the following modifications. Human recombinant MAO-A and MAO-B expressed in insect cells were used. For both assays, test compound and/or vehicle were preincubated with purified enzyme in phosphate buffer pH 7.4 for 15 minutes at 37° C. The reaction was initiated by addition of […] kynuramine. Following a 60 minute incubation period, the reaction was terminated by the addition of 6 N NaOH. The amount of 4-hydroxyquinoline that formed was determined by spectrofluorimetrically at 325 nm/465 nm.
Results were converted to percent inhibition, and the EC50 (M) for each reaction was determined using the XLfit program from IDBS (ID Business Solutions Ltd., 2 Occam Court, Surrey Research Park, Guildford, Surrey, GU2 7QB UK). The EC50 represents the concentration of a compound where 50% of its maximal effect is observed. The pEC50 is defined as the negative logarithm of the EC50; a higher pEC50 value therefore corresponds to higher potency in the assay.
Representative compounds of the invention were evaluated in the MAO-B enzymatic assay. Typically, the compounds of the invention show MAO-B inhibitory properties at a concentration of 0.1 to 10 μM, typically at 5-100%.
As depicted in the following Table, these inhibitory properties were mirrored by pEC50 values ranging from 5 (meaning 10^−5 M or 10 μM) to greater than 7 (meaning less than 10^−7 M or 0.1 μM).

SMILES strings stand for the structures.

With `NC(=O)c1cnc2cc(OCc3cccc(Cl)c3)ccc2c1` [Example 64, 7-((3-Chlorobenzyl)oxy)quinoline-3-carboxamide], the EC50 was < 100 nM.

Take `Cc1nc2cc(OCc3cccc(F)c3)ccc2cc1C(C)(C)O` [Example 34, 2-(7-((3-Fluorobenzyl)oxy)-2-methylquinolin-3-yl)propan-2-ol]: the EC50 is < 100 nM.

Consider `NC(=O)Cc1cnc2cc(OCc3ccc(F)c(F)c3)cnc2c1` [Example 80, 2-(7-((3,4-Difluorobenzyl)oxy)-1,5-naphthyridin-3-yl)acetamide], for which the EC50 is < 100 nM.

As to `CC(C)(O)c1cnc2cc(OCc3cccc(F)c3)cnc2c1` [Example 76, 2-{7-[(3-Fluorophenyl)methoxy]-1,5-naphthyridin-3-yl}propan-2-ol], the EC50 is < 100 nM.

For the compound `CC(=O)c1cnc2cc(OCc3ccc(F)cc3)ccc2c1` [Example 42, 1-(7-((4-Fluorobenzyl)oxy)quinolin-3-yl)ethanone], the EC50 was < 100 nM.

As to `NCCNC(=O)c1cnc2cc(OCc3cccc(Cl)c3)ccc2c1` [Example 47, N-(2-Aminoethyl)-7-((3-chlorobenzyl)oxy)quinoline-3-carboxamide], the EC50 was < 100 nM.

For `NC(=O)Cc1cc2ccc(OCc3cccc(Cl)c3)cc2[nH]c1=O` [Example 83, 2-(7-((3-Chlorobenzyl)oxy)-2-oxo-1,2-dihydroquinolin-3-yl)acetamide], the EC50 is < 100 nM.

In the case of `CC(C)(O)c1cnc2cc(OCCc3cccc(Cl)c3)ccc2c1` [Example 39, 2-(7-(3-Chlorophenethoxy)quinolin-3-yl)propan-2-ol], the EC50 is 100 to 1000 nM.

Turning to `CCOC(=O)c1cnc2cc(OCc3cc(F)cc(Cl)c3)ccc2c1` [Example 19, Ethyl 7-((3-chloro-5-fluorobenzyl)oxy)quinoline-3-carboxylate], the EC50 was < 100 nM.

Regarding `CCOC(=O)c1cnc2cc(OCc3ccc([N+](=O)[O-])cc3)ccc2c1` [Example 11, Ethyl 7-((4-nitrobenzyl)oxy)quinoline-3-carboxylate], the EC50 was 100 to 1000 nM.

Regarding `CCOC(=O)c1cnc2cc(OCc3cccc(C(F)(F)F)c3)ccc2c1` [Example 5, Ethyl 7-((3-(trifluoromethyl)benzyl)oxy)quinoline-3-carboxylate], the EC50 is < 100 nM.

On to `CC(C)(O)Cc1cnc2cc(OCc3cccc(Cl)c3)ccc2c1` [Example 63, 1-(7-((3-Chlorobenzyl)oxy)quinolin-3-yl)-2-methylpropan-2-ol], for which the EC50 was 1000 to 10000 nM.

Take `CCOC(=O)c1cnc2cc(OCc3ccc(F)c(C(F)(F)F)c3)ccc2c1` [Example 12, Ethyl 7-((4-fluoro-3-(trifluoromethyl)benzyl)oxy)quinoline-3-carboxylate]: the EC50 was < 100 nM.

`CC(C)(F)c1cnc2cc(OCc3ccc(F)cc3)ccc2c1` [Example 41, 7-((4-Fluorobenzyl)oxy)-3-(2-fluoropropan-2-yl)quinoline]: the EC50 was < 100 nM.

Turning to `OCc1cnc2cc(OCc3cc(F)c(F)c(F)c3)ccc2c1` [Example 37, (7-((3,4,5-Trifluorobenzyl)oxy)quinolin-3-yl)methanol], the EC50 is < 100 nM.

As to `CCOC(=O)c1cnc2cc(OCc3cccc(C)c3)ccc2c1` [Example 7, Ethyl 7-((3-methylbenzyl)oxy)quinoline-3-carboxylate], the EC50 was < 100 nM.

Regarding `COCc1cnc2cc(OCc3cccc(Cl)c3)ccc2c1` [Example 40, 7-((3-Chlorobenzyl)oxy)-3-(methoxymethyl)quinoline], the EC50 is < 100 nM.

Consider `CNC(=O)c1cnc2cc(OCc3cccc(Cl)c3)ccc2c1` [Example 46, 7-((3-Chlorobenzyl)oxy)-N-methylquinoline-3-carboxamide], for which the EC50 was < 100 nM.

Take `CCOC(=O)c1cc2ccc(OCc3ccc(F)cc3)cc2nc1C` [Example 22, Ethyl 7-((4-fluorobenzyl)oxy)-2-methylquinoline-3-carboxylate]: the EC50 is < 100 nM.

For `NCc1cnc2cc(OCc3cccc(Cl)c3)ccc2c1` [Example 50, (7-((3-Chlorobenzyl)oxy)quinolin-3-yl)methanamine], the EC50 is < 100 nM.

On to `Cc1nc2cc(OCc3cccc(Cl)c3)ccc2cc1C(C)(C)O` [Example 32, 2-(7-((3-Chlorobenzyl)oxy)-2-methylquinolin-3-yl)propan-2-ol], for which the EC50 is < 100 nM.

In the case of `CCOC(=O)c1cnc2cc(OCc3ccc(C(F)(F)F)cc3)ccc2c1` [Example 6, Ethyl 7-((4-(trifluoromethyl)benzyl)oxy)quinoline-3-carboxylate], the EC50 is 100 to 1000 nM.

Turning to `CCOC(=O)c1cnc2cc(OCc3ccc(F)c(F)c3)ccc2c1` [Example 14, Ethyl 7-((3,4-difluorobenzyl)oxy)quinoline-3-carboxylate], the EC50 is < 100 nM.

Turning to `NC(=O)CC1Cc2ccc(OCc3cccc(Cl)c3)cc2NC1=O` (stereo not shown) [Example 82, 2-(7-((3-Chlorobenzyl)oxy)-2-oxo-1,2,3,4-tetrahydroquinolin-3-yl)acetamide], the EC50 is < 100 nM.

`CCOC(=O)c1cnc2cc(OCc3ccc(C)cc3)ccc2c1` [Example 8, Ethyl 7-((4-methylbenzyl)oxy)quinoline-3-carboxylate]: the EC50 is 100 to 1000 nM.

Consider `C[C@H](O)c1cnc2cc(OCc3ccc(F)cc3)ccc2c1` [Example 45, (S)-1-(7-((4-Fluorobenzyl)oxy)quinolin-3-yl)ethanol], for which the EC50 was < 100 nM.

Regarding `NC(=O)c1cnc2cc(OCc3ccc(F)cc3)cnc2c1` [Example 68, 7-((4-Fluorobenzyl)oxy)-1,5-naphthyridine-3-carboxamide], the EC50 is < 100 nM.

On to `NC(=O)c1cnc2cc(OCc3ccc(F)c(Cl)c3)cnc2c1` [Example 71, 7-[(3-Chloro-4-fluorophenyl)methoxy]-1,5-naphthyridine-3-carboxamide], for which the EC50 is < 100 nM.

Consider `CC(O)c1cnc2cc(OCc3ccc(F)cc3)ccc2c1` (stereo not shown) [Example 43, 1-(7-((4-Fluorobenzyl)oxy)quinolin-3-yl)ethanol], for which the EC50 is < 100 nM.

For `CCOC(=O)c1cnc2cc(OCc3ccc(Cl)cc3)ccc2c1` [Example 1, Ethyl 7-[(4-chlorophenyl)methoxy]quinoline-3-carboxylate], the EC50 is < 100 nM.

Turning to `Cc1nc2cc(OCc3ccc(F)c(Cl)c3)ccc2cc1C(C)(C)O` [Example 33, 2-(7-((3-Chloro-4-fluorobenzyl)oxy)-2-methylquinolin-3-yl)propan-2-ol], the EC50 is < 100 nM.

Take `CC(C)(CO)c1cnc2cc(OCc3cccc(Cl)c3)ccc2c1` [Example 60, 2-(7-((3-Chlorobenzyl)oxy)quinolin-3-yl)-2-methylpropan-1-ol]: the EC50 was < 100 nM.

`N#CCc1cnc2cc(OCc3ccc(F)c(F)c3)cnc2c1` [Example 74, 2-{7-[(3,4-Difluorophenyl)methoxy]-1,5-naphthyridin-3-yl}acetonitrile]: the EC50 is < 100 nM.

As to `CCOC(=O)c1cnc2cc(OCc3ccc(F)c(Cl)c3)ccc2c1` [Example 17, Ethyl 7-((3-chloro-4-fluorobenzyl)oxy)quinoline-3-carboxylate], the EC50 was < 100 nM.

`CCOC(=O)c1cnc2cc(OCc3cccc(OC)c3)ccc2c1` [Example 9, Ethyl 7-((3-methoxybenzyl)oxy)quinoline-3-carboxylate]: the EC50 was < 100 nM.

`C[C@@H](O)c1cnc2cc(OCc3ccc(F)cc3)ccc2c1` [Example 44, (R)-1-(7-((4-Fluorobenzyl)oxy)quinolin-3-yl)ethanol]: the EC50 was < 100 nM.

For `NC(=O)c1cnc2cc(OCc3ccc(F)c(F)c3)cnc2c1` [Example 70, 7-((3,4-Difluorobenzyl)oxy)-1,5-naphthyridine-3-carboxamide], the EC50 is < 100 nM.

For `CCOC(=O)c1cnc2cc(OCc3cc(F)cc(C(F)(F)F)c3)ccc2c1` [Example 13, Ethyl 7-((3-fluoro-5-(trifluoromethyl)benzyl)oxy)quinoline-3-carboxylate], the EC50 was < 100 nM.

Turning to `CCOC(=O)c1cnc2cc(OCc3cccc([N+](=O)[O-])c3)ccc2c1` [Example 18, Ethyl 7-((3-nitrobenzyl)oxy)quinoline-3-carboxylate], the EC50 was < 100 nM.

With `CC(C)(F)c1cnc2cc(OCc3ccc(F)cc3)cnc2c1` [Example 75, 3-[(4-Fluorophenyl)methoxy]-7-(2-fluoropropan-2-yl)-1,5-naphthyridine], the EC50 was < 100 nM.
